Source: patent US11180462B2, “Microbiocidal oxadiazole derivatives” (SYNGENTA PARTICIPATIONS AG, priority 2015, dated 2021)

Experiments:
[1] = test system: Puccinia recondita f. Sp. Tritici; experiment: Fungicidal activity against Puccinia recondita f. sp. tritici / wheat / leaf disc curative (brown rust); format: in vivo; details: foliar, 24 h, 200 ppm in the applied formulation, wheat leaf segments, curative (applied 1 day after inoculation), compared to untreated control leaf disks, read-out: disease control
How it was run: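 Segments of wheat cv. Kanzler were laid on agar and inoculated with a spore suspension of the rust, then held in darkness at 19° C and 75% relative humidity. One day later the water-diluted formulated compound was applied, with incubation continued under a 12 h light/dark cycle.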

[2] = test system: Puccinia recondita f. Sp. Tritici; experiment: Fungicidal activity against Puccinia recondita f. sp. tritici / wheat / leaf disc preventative (brown rust); format: in vivo; details: foliar, 200 ppm in the applied formulation, wheat leaf segments, preventative, compared to untreated control leaf disks, read-out: disease control
How it was run: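 Compound application precedes infection: segments of wheat cv. Kanzler, sprayed at 200 ppm, are inoculated with a spore suspension after 1 day. Incubation is at 19° C. with 75% relative humidity and 12 h light/12 h darkness, and control versus untreated leaves is rated 7 to 9 days post-application.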

[3] = test system: Glomerella lagenarium (Colletotrichum lagenarium); experiment: Fungicidal activity against Glomerella lagenarium (Colletotrichum lagenarium) liquid culture / cucumber / preventative (anthracnose); format: cell-based; details: Colletotrichum orbiculare; 20 ppm in the applied formulation; liquid culture (PDB), growth inhibition measured photometrically after 3 to 4 days; compared to untreated control; read-out: disease control
How it was run: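 Photometric read-out of fungal growth after 2–7 days, expressed as percent antifungal activity versus untreated check. Cryo-stored conidia in PDB; compound at 20 ppm; dark, 24 °C, 96% RH.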

CCCCC(=O)N(CCOC)Cc1ccc(-c2noc(C(F)(F)F)n2)cc1 [Compound 1.366, N-(2-methoxyethyl)-N-[[4-[5-(trifluoromethyl)-1,2,4-oxadiazol-3-yl]phenyl]methyl]-pentanamide]
≥ 80%: pest or weed control at 200 ppm [1] | pest or weed control at 200 ppm [2] | inhibition of growth at 20 ppm [3]

CC=CC(=O)N(Cc1ccc(-c2noc(C(F)(F)F)n2)cc1)C(C)CC (stereo not drawn) [Compound 1.370, N-sec-butyl-N-[[4-[5-(trifluoromethyl)-1,2,4-oxadiazol-3-yl]phenyl]methyl] but-2-enamide]
≥ 80%: pest or weed control at 200 ppm [1] | pest or weed control at 200 ppm [2] | inhibition of growth at 20 ppm [3]

CCC(C)N(Cc1ccc(-c2noc(C(F)(F)F)n2)cc1)C(=O)C1CC1(F)F (stereo not drawn) [Compound 1.371, 2,2-difluoro-N-sec-butyl-N-[[4-[5-(trifluoromethyl)-1,2,4-oxadiazol-3-yl]phenyl]methyl]-cyclopropane-carboxamide]
≥ 80%: pest or weed control at 200 ppm [1] | pest or weed control at 200 ppm [2] | inhibition of growth at 20 ppm [3]

CCCC(=O)N(Cc1ccc(-c2noc(C(F)(F)F)n2)cc1)C(C)CC (stereo not drawn) [Compound 1.373, N-sec-butyl-N-[[4-[5-(trifluoromethyl)-1,2,4-oxadiazol-3-yl]phenyl]methyl]-butanamide]
≥ 80%: pest or weed control at 200 ppm [1] | pest or weed control at 200 ppm [2] | inhibition of growth at 20 ppm [3]

CC=C(C)C(=O)N(Cc1ccc(-c2noc(C(F)(F)F)n2)cc1)C(C)CC (stereo not drawn) [Compound 1.374, 2-methyl-N-sec-butyl-N-[[4-[5-(trifluoromethyl)-1,2,4-oxadiazol-3-yl]phenyl]methyl]but-2-enamide]
≥ 80%: pest or weed control at 200 ppm [1] | pest or weed control at 200 ppm [2] | inhibition of growth at 20 ppm [3]

CCC(C)N(Cc1ccc(-c2noc(C(F)(F)F)n2)cc1)C(=O)CC1CC1 (stereo not drawn) [Compound 1.375, 2-cyclopropyl-N-sec-butyl-N-[[4-(5-(trifluoromethyl)-1,2,4-oxadiazol-3-yl]phenyl]methyl]-acetamide]
≥ 80%: pest or weed control at 200 ppm [1] | pest or weed control at 200 ppm [2] | inhibition of growth at 20 ppm [3]

CCC(C)N(Cc1ccc(-c2noc(C(F)(F)F)n2)cc1)C(=O)C1CSC1 (stereo not drawn) [Compound 1.378, N-sec-butyl-N-[[4-[5-(trifluoromethyl)-1,2,4-oxadiazol-3-yl]phenyl]methyl]-thietane-3-carboxamide]
≥ 80%: pest or weed control at 200 ppm [1] | pest or weed control at 200 ppm [2] | inhibition of growth at 20 ppm [3]

CCC(C)N(Cc1ccc(-c2noc(C(F)(F)F)n2)cc1)C(=O)C1(C)CC1 (stereo not drawn) [Compound 1.388, 1-methyl-N-sec-butyl-N-[[4-[5-(trifluoromethyl)-1,2,4-oxadiazol-3-yl]phenyl]methyl]-cyclopropane-carboxamide]
≥ 80%: pest or weed control at 200 ppm [1] | pest or weed control at 200 ppm [2] | inhibition of growth at 20 ppm [3]

C#CC(=O)N(Cc1ccc(-c2noc(C(F)(F)F)n2)cc1)C(C)CC (stereo not drawn) [Compound 1.391, N-sec-butyl-N-[[4-[5-(trifluoromethyl)-1,2,4-oxadiazol-3-yl]phenyl]methyl]-prop-2-ynamide]
≥ 80%: pest or weed control at 200 ppm [1] | pest or weed control at 200 ppm [2] | inhibition of growth at 20 ppm [3]

CCC(C)N(Cc1ccc(-c2noc(C(F)(F)F)n2)cc1)C(=O)C=CC(C)=O (stereo not drawn) [Compound 1.396, 4-oxo-N-sec-butyl-N-[[4-[5-(trifluoromethyl)-1,2,4-oxadiazol-3-yl]phenyl]methyl]-pent-2-enamide]
≥ 80%: pest or weed control at 200 ppm [1] | pest or weed control at 200 ppm [2] | inhibition of growth at 20 ppm [3]

CCC(C)N(Cc1ccc(-c2noc(C(F)(F)F)n2)cc1)C(=O)C1CCCN1C(C)=O (stereo not drawn) [Compound 1.400, 1-acetyl-N-sec-butyl-N-[[4-[5-(trifluoromethyl)-1,2,4-oxadiazol-3-yl]phenyl]methyl]-pyrrolidine-2-carboxamide]
≥ 80%: pest or weed control at 200 ppm [1] | pest or weed control at 200 ppm [2] | inhibition of growth at 20 ppm [3]

CCC(C)N(Cc1ccc(-c2noc(C(F)(F)F)n2)cc1)C(=O)C1CC1 (stereo not drawn) [Compound 1.406, N-sec-butyl-N-[[4-[5-(trifluoromethyl)-1,2,4-oxadiazol-3-yl]phenyl]methyl]-cyclopropane-carboxamide]
≥ 80%: pest or weed control at 200 ppm [1] | pest or weed control at 200 ppm [2] | inhibition of growth at 20 ppm [3]

O=C(C1CCCCO1)N(Cc1ccc(-c2noc(C(F)(F)F)n2)cc1)CC1CCCO1 (stereo not drawn) [Compound 1.411, N-(tetrahydrofuran-2-ylmethyl)-N-[[4-[5-(trifluoromethyl)-1,2,4-oxadiazol-3-yl]phenyl]methyl]-tetrahydropyran-2-carboxamide]
≥ 80%: pest or weed control at 200 ppm [1] | pest or weed control at 200 ppm [2] | inhibition of growth at 20 ppm [3]

COCC(=O)N(Cc1ccc(-c2noc(C(F)(F)F)n2)cc1)CC1CCCO1 (stereo not drawn) [Compound 1.415, 2-methoxy-N-(tetrahydrofuran-2-ylmethyl)-N-[[4-[5-(trifluoromethyl)-1,2,4-oxadiazol-3-yl]phenyl]methyl]-acetamide]
≥ 80%: pest or weed control at 200 ppm [1] | pest or weed control at 200 ppm [2] | inhibition of growth at 20 ppm [3]

CC=C(C)C(=O)N(Cc1ccc(-c2noc(C(F)(F)F)n2)cc1)CC1CCCO1 (stereo not drawn) [Compound 1.417, 2-methyl-N-(tetrahydrofuran-2-ylmethyl)-N-[[4-[5-(trifluoromethyl)-1,2,4-oxadiazol-3-yl]phenyl]methyl]but-2-enamide]
≥ 80%: pest or weed control at 200 ppm [1] | pest or weed control at 200 ppm [2] | inhibition of growth at 20 ppm [3]

O=C(C1CSC1)N(Cc1ccc(-c2noc(C(F)(F)F)n2)cc1)CC1CCCO1 (stereo not drawn) [Compound 1.421, N-(tetrahydrofuran-2-ylmethyl)-N-[[4-[5-(trifluoromethyl)-1,2,4-oxadiazol-3-yl]phenyl]methyl]-thietane-3-carboxamide]
≥ 80%: pest or weed control at 200 ppm [1] | pest or weed control at 200 ppm [2] | inhibition of growth at 20 ppm [3]

COCCC(=O)N(Cc1ccc(-c2noc(C(F)(F)F)n2)cc1)CC1CCCO1 (stereo not drawn) [Compound 1.422, 3-methoxy-N-(tetrahydrofuran-2-ylmethyl)-N-[[4-[5-(trifluoromethyl)-1,2,4-oxadiazol-3-yl]phenyl]methyl]-propanamide]
≥ 80%: pest or weed control at 200 ppm [1] | pest or weed control at 200 ppm [2] | inhibition of growth at 20 ppm [3]

CCOCC(=O)N(Cc1ccc(-c2noc(C(F)(F)F)n2)cc1)CC1CCCO1 (stereo not drawn) [Compound 1.426, 2-ethoxy-N-(tetrahydrofuran-2-ylmethyl)-N-[[4-[5-(trifluoromethyl)-1,2,4-oxadiazol-3-yl]phenyl]methyl]-acetamide]
≥ 80%: pest or weed control at 200 ppm [1] | pest or weed control at 200 ppm [2] | inhibition of growth at 20 ppm [3]

COCCOCC(=O)N(Cc1ccc(-c2noc(C(F)(F)F)n2)cc1)CC1CCCO1 (stereo not drawn) [Compound 1.427, 2-(2-methoxyethoxy)-N-(tetrahydrofuran-2-ylmethyl)-N-[[4-[5-(trifluoromethyl)-1,2,4-oxadiazol-3-yl]phenyl]methyl]-acetamide]
≥ 80%: pest or weed control at 200 ppm [1] | pest or weed control at 200 ppm [2] | inhibition of growth at 20 ppm [3]

CC1(C(=O)N(Cc2ccc(-c3noc(C(F)(F)F)n3)cc2)CC2CCCO2)CC1 (stereo not drawn) [Compound 1.431, 1-methyl-N-(tetrahydrofuran-2-ylmethyl)-N-[[4-[5-(trifluoromethyl)-1,2,4-oxadiazol-3-yl]phenyl]methyl]-cyclopropane-carboxamide]
≥ 80%: pest or weed control at 200 ppm [1] | pest or weed control at 200 ppm [2] | inhibition of growth at 20 ppm [3]
